Test results reported in PubChem BioAssay AID2060619 (Molecular Pharmacology Branch, DTP, NCI, 2025).
Each block holds one compound with its values, some of them ahead of it.

Test system: 323965-272-R-J2-PDC complex spheroid viability
Assay: Anticancer human tumor 323965-272-R-J2-PDC patient-derived pancreatic carcinoma cell line growth inhibition [CLK]
Settings: for IC50: curve of first compound; for viability, T/C: stronger effect = lower value
In short: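 Multi-cell-type spheroids combined patient-derived tumor cells with HUVEC endothelial cells and human mesenchymal stem cells. Paired agents were dosed in half-log steps down from about clinical Cmax, or from 10 microM where Cmax was unknown.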

[1] = second compound 0.0316 µM, first compound 0.0316 µM
[2] = second compound 0.0316 µM, first compound 0.1 µM
[3] = second compound 0.0316 µM, first compound 0.316 µM
[4] = second compound 0.0316 µM, first compound 1 µM
[5] = second compound 0.0316 µM, first compound 3.16 µM
[6] = second compound 0.0316 µM, first compound 10 µM
[7] = second compound 0.1 µM, first compound 0.0316 µM
[8] = second compound 0.1 µM, first compound 0.1 µM
[9] = second compound 0.1 µM, first compound 0.316 µM
[10] = second compound 0.1 µM, first compound 1 µM
[11] = second compound 0.1 µM, first compound 3.16 µM
[12] = second compound 0.1 µM, first compound 10 µM
[13] = second compound 0.316 µM, first compound 0.0316 µM
[14] = second compound 0.316 µM, first compound 0.1 µM
[15] = second compound 0.316 µM, first compound 0.316 µM
[16] = second compound 0.316 µM, first compound 1 µM
[17] = second compound 0.316 µM, first compound 3.16 µM
[18] = second compound 0.316 µM, first compound 10 µM
[19] = second compound 1 µM, first compound 0.0316 µM
[20] = second compound 1 µM, first compound 0.1 µM
[21] = second compound 1 µM, first compound 0.316 µM
[22] = second compound 1 µM, first compound 1 µM
[23] = second compound 1 µM, first compound 3.16 µM
[24] = second compound 1 µM, first compound 10 µM
[25] = second compound 3.16 µM, first compound 0.0316 µM
[26] = second compound 3.16 µM, first compound 0.1 µM
[27] = second compound 3.16 µM, first compound 0.316 µM
[28] = second compound 3.16 µM, first compound 1 µM
[29] = second compound 3.16 µM, first compound 3.16 µM
[30] = second compound 3.16 µM, first compound 10 µM
[31] = second compound 10 µM, first compound 0.0316 µM
[32] = second compound 10 µM, first compound 0.1 µM
[33] = second compound 10 µM, first compound 0.316 µM
[34] = second compound 10 µM, first compound 1 µM
[35] = second compound 10 µM, first compound 3.16 µM
[36] = second compound 10 µM, first compound 10 µM
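Also: spheroids exposed to agents for seven days before readout.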
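For viability, T/C in this document: percent of DMSO vehicle control wells so 100% = untreated growth.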

IC50 (second compound 0.0316 µM): > 10000 nM
IC50 (second compound 0.1 µM): > 10000 nM
IC50 (second compound 0.316 µM): > 10000 nM
IC50 (second compound 1 µM): < 31.6 nM
IC50 (second compound 3.16 µM): < 31.6 nM
IC50 (second compound 10 µM): < 31.6 nM
Structure (SMILES): CC(CO)NC(=O)c1cc(-c2ccc(Cl)cc2)nn(-c2cnn(C)c2)c1=O (stereo unspecified) + CNC(=O)c1ccc(Nc2nc(OC3CCCC3)c3c(-c4ccc5nc(C)oc5c4)c[nH]c3n2)c(OC)c1
viability, T/C [1]: 122%
viability, T/C [2]: 85.6%
viability, T/C [3]: 100%
viability, T/C [4]: 101%
viability, T/C [5]: 102%
viability, T/C [6]: 103%
viability, T/C [7]: 81.2%
viability, T/C [8]: 80.5%
viability, T/C [9]: 76.5%
viability, T/C [10]: 73.7%
viability, T/C [11]: 76.9%
viability, T/C [12]: 72.1%
viability, T/C [13]: 60%
viability, T/C [14]: 67.4%
viability, T/C [15]: 67.1%
viability, T/C [16]: 57.8%
viability, T/C [17]: 61%
viability, T/C [18]: 53.4%
viability, T/C [19]: 50.8%
viability, T/C [20]: 41.2%
viability, T/C [21]: 42.2%
viability, T/C [22]: 51.1%
viability, T/C [23]: 51.6%
viability, T/C [24]: 48.7%
viability, T/C [25]: 41.8%
viability, T/C [26]: 42.5%
viability, T/C [27]: 40.1%
viability, T/C [28]: 35.5%
viability, T/C [29]: 44.4%
viability, T/C [30]: 47.1%
viability, T/C [31]: 43.2%
viability, T/C [32]: 40.4%
viability, T/C [33]: 36.8%
viability, T/C [34]: 43.1%
viability, T/C [35]: 41.5%
viability, T/C [36]: 41.4%

IC50 (second compound 0.0316 µM): > 10000 nM
IC50 (second compound 0.1 µM): > 10000 nM
IC50 (second compound 0.316 µM): 290 nM
IC50 (second compound 1 µM): < 31.6 nM
IC50 (second compound 3.16 µM): < 31.6 nM
IC50 (second compound 10 µM): < 31.6 nM
Structure (SMILES): CC(Nc1ccc2c(c1)OCCn1cc(N3C(=O)OCC3C(F)F)nc1-2)C(N)=O (stereo unspecified) + CNC(=O)c1ccc(Nc2nc(OC3CCCC3)c3c(-c4ccc5nc(C)oc5c4)c[nH]c3n2)c(OC)c1
viability, T/C [1]: 110%
viability, T/C [2]: 97.7%
viability, T/C [3]: 80.4%
viability, T/C [4]: 68.9%
viability, T/C [5]: 64%
viability, T/C [6]: 52%
viability, T/C [7]: 89.7%
viability, T/C [8]: 74.6%
viability, T/C [9]: 73.9%
viability, T/C [10]: 71.6%
viability, T/C [11]: 58.4%
viability, T/C [12]: 50.5%
viability, T/C [13]: 63.6%
viability, T/C [14]: 59.5%
viability, T/C [15]: 48.5%
viability, T/C [16]: 43.1%
viability, T/C [17]: 39.9%
viability, T/C [18]: 39.2%
viability, T/C [19]: 43.4%
viability, T/C [20]: 36.5%
viability, T/C [21]: 33%
viability, T/C [22]: 29.6%
viability, T/C [23]: 30.1%
viability, T/C [24]: 27.7%
viability, T/C [25]: 34.8%
viability, T/C [26]: 35.6%
viability, T/C [27]: 30.7%
viability, T/C [28]: 27.8%
viability, T/C [29]: 30.7%
viability, T/C [30]: 21.7%
viability, T/C [31]: 42%
viability, T/C [32]: 33.8%
viability, T/C [33]: 28%
viability, T/C [34]: 28.8%
viability, T/C [35]: 28%
viability, T/C [36]: 20.9%

IC50 (second compound 0.0316 µM): 90.7 nM
IC50 (second compound 0.1 µM): 62.2 nM
IC50 (second compound 0.316 µM): 16.3 nM
IC50 (second compound 1 µM): < 3.16 nM
IC50 (second compound 3.16 µM): < 3.16 nM
IC50 (second compound 10 µM): < 3.16 nM
Structure (SMILES): COc1c(OCCCN2CCOCC2)ccc2c3n(c(=NC(=O)c4cnc(N)nc4)nc12)CCN3 + CNC(=O)c1ccc(Nc2nc(OC3CCCC3)c3c(-c4ccc5nc(C)oc5c4)c[nH]c3n2)c(OC)c1
viability, T/C (second compound 0.0316 µM, first compound 0.00316 µM): 107%
viability, T/C (second compound 0.0316 µM, first compound 0.01 µM): 82%
viability, T/C [1]: 66.8%
viability, T/C [2]: 48.4%
viability, T/C [3]: 34.1%
viability, T/C [4]: 22.2%
viability, T/C (second compound 0.1 µM, first compound 0.00316 µM): 89.8%
viability, T/C (second compound 0.1 µM, first compound 0.01 µM): 84.6%
viability, T/C [7]: 58.8%
viability, T/C [8]: 42%
viability, T/C [9]: 31.2%
viability, T/C [10]: 21.1%
viability, T/C (second compound 0.316 µM, first compound 0.00316 µM): 64.5%
viability, T/C (second compound 0.316 µM, first compound 0.01 µM): 56.7%
viability, T/C [13]: 42.4%
viability, T/C [14]: 31.7%
viability, T/C [15]: 27.7%
viability, T/C [16]: 16.4%
viability, T/C (second compound 1 µM, first compound 0.00316 µM): 45.5%
viability, T/C (second compound 1 µM, first compound 0.01 µM): 38.8%
viability, T/C [19]: 31.8%
viability, T/C [20]: 24.5%
viability, T/C [21]: 21.4%
viability, T/C [22]: 15.2%
viability, T/C (second compound 3.16 µM, first compound 0.00316 µM): 37.5%
viability, T/C (second compound 3.16 µM, first compound 0.01 µM): 28.3%
viability, T/C [25]: 23.3%
viability, T/C [26]: 19.4%
viability, T/C [27]: 15.8%
viability, T/C [28]: 13.7%
viability, T/C (second compound 10 µM, first compound 0.00316 µM): 44.8%
viability, T/C (second compound 10 µM, first compound 0.01 µM): 32.7%
viability, T/C [31]: 26.4%
viability, T/C [32]: 19.8%
viability, T/C [33]: 17.1%
viability, T/C [34]: 13.5%
